Values after ≈ are worked out from the molar mass of the structure shown.
Assays:
[1] = Cytotoxicity against human HeLa cells; type: toxicity, cell-based
Cryptococcus neoformans = experiment: Antifungal activity against Cryptococcus neoformans; type: functional
[2] = test system: Mycobacterium tuberculosis; experiment: Antibacterial activity against Mycobacterium tuberculosis; type: functional
Enterococcus faecalis = experiment: Antibacterial activity against Enterococcus faecalis; type: functional
Salmonella typhimurium = experiment: Antibacterial activity against Salmonella typhimurium; type: functional, Salmonella enterica subsp. enterica serovar Typhimurium; conditions: Salmonella enterica
Chlamydia trachomatis = experiment: Bactericidal activity against Chlamydia trachomatis; type: functional
Chlamydia = experiment: Antibacterial activity against Chlamydia; type: functional
Aspergillus niger = experiment: Antifungal activity against Aspergillus niger; type: functional
Aspergillus = experiment: Antifungal activity against Aspergillus; type: functional
Candida albicans = experiment: Antifungal activity against Candida albicans; type: functional
[3] = Inhibition of Aeromonas proteolytica aminopeptidase; design: species or system Vibrio proteolyticus
[4] = biological target: Botulinum neurotoxin type F (Clostridium botulinum, UniProt P30996); experiment: Inhibition of Botulinum neurotoxins/F
[5] = Inhibition of Mycobacterium tuberculosis Zmp1
Candida = experiment: Antibiofilm activity against Candida; type: functional
Staphylococcus aureus = experiment: Antibiofilm activity against methicillin-resistant Staphylococcus aureus; type: functional
[6] = test system: Staphylococcus epidermidis; experiment: Antibiofilm activity against methicillin-resistant Staphylococcus epidermidis; type: functional
Enterococcus = experiment: Antibiofilm activity against vancomycin-resistant Enterococcus; type: functional
Nakaseomyces glabratus = experiment: Antifungal activity against Candida glabrata; type: functional

Botulinum neurotoxin type F, sequence (P30996 1-436 limits assumed): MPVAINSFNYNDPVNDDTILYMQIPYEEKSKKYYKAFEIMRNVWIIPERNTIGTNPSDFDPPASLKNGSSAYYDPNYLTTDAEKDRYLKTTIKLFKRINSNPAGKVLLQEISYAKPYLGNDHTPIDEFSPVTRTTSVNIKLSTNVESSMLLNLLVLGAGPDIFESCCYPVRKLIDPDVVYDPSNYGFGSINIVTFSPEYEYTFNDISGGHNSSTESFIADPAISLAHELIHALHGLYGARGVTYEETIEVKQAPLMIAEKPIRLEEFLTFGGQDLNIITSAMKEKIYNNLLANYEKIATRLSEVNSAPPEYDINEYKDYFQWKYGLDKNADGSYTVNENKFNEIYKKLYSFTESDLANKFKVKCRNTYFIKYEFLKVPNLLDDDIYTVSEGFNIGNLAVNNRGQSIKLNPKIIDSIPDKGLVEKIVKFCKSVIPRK

Question: With `CCOC(=O)c1cc2c(Br)cc(Br)c(O)c2nc1C` as the compound, how does the IC50 [1] read?
Answer: > 100 µM

Question: For `Cc1ccc(S(=O)(=O)OCCn2cc(COc3cccc4cccnc34)nn2)cc1`, which MIC80 (Cryptococcus neoformans) is on record?
Answer: 2.36 µM (≈ 1 µg/mL)

Question: Which MIC [2] does the source give for `O=C(NNC(c1ccc2cccnc2c1O)c1c[nH]c2ccccc12)c1ccncc1` (stereo not drawn) here?
Answer: 122 µM (≈ 50 µg/mL)

Question: For `O=C(CSc1nnc(COc2cccc3cccnc23)n1-c1ccccc1)Nc1nc2cc([N+](=O)[O-])ccc2s1`, which MIC (Enterococcus faecalis) is on record?
Answer: 27.4 µM (≈ 15.6 µg/mL)

Question: What about the MIC (Salmonella typhimurium) of the same compound?
Answer: 13.7 µM (≈ 7.8 µg/mL)

Question: For `O=C(O)c1cn(C2CC2)c2cc(N3CCNCC3)c(F)cc2c1=O` [CIPROFLOXACIN], which MBC (Chlamydia trachomatis) is on record?
Answer: > 50 µM

Question: For `O=[N+]([O-])c1cc(CN2CCN(c3ccc(F)cc3)CC2)c(O)c2ncccc12`, which MBC (Chlamydia) is on record?
Answer: 3.13 µM (≈ 1.2 µg/mL)

Question: Which MIC [2] does the source give for `COc1cccc(/C=C/c2ccc3cccc(O)c3n2)c1` here?
Answer: > 200 µM

Question: Which MIC [2] does the source give for `OC(COc1ccc(Cl)cc1)COc1cccc2cccnc12` (stereo not drawn) here?
Answer: 9.85 µM (≈ 3.25 µg/mL)

Question: Which MIC [2] does the source give for `Oc1cccc2ccc(Nc3ccccc3)nc12` here?
Answer: > 20 µM

Question: With `O=[N+]([O-])c1cc(CN2CCN(c3ccccc3)CC2)c(O)c2ncccc12` as the compound, how does the MBC (Chlamydia) read?
Answer: 25 µM (≈ 9.11 µg/mL)

Question: Which MIC [2] does the source give for `O=C(NNC(c1ccc2cccnc2c1O)c1c(-c2ccccc2)[nH]c2ccccc12)c1ccncc1` (stereo not drawn) here?
Answer: 103 µM (≈ 50 µg/mL)

Question: Which MIC (Aspergillus niger) does the source give for `Brc1cccc(COc2cccc3cccnc23)c1` here?
Answer: 9.94 µM (≈ 3.12 µg/mL)

Question: With `COc1ccc(CNC(=O)c2ccc3ccc(C)nc3c2O)cc1` as the compound, how does the MIC [2] read?
Answer: > 500 µM

Question: For `N#Cc1ccc(Nc2nc(Oc3cccc4cccnc34)nc(N3CCN(c4cccc(Cl)c4Cl)CC3)n2)cc1C(F)(F)F`, which MIC [2] is on record?
Answer: 19.6 µM (≈ 12.5 µg/mL)

Question: What about the MIC (Aspergillus) of the same compound?
Answer: 9.8 µM (≈ 6.25 µg/mL)

Question: With `N#Cc1ccc(Nc2nc(Oc3cccc4cccnc34)nc(N3CCN(c4ccccn4)CC3)n2)cc1C(F)(F)F` as the compound, how does the MIC (Candida albicans) read?
Answer: 9.8 µM (≈ 5.58 µg/mL)

Question: What about the MIC [2] of the same compound?
Answer: 439 µM (≈ 250 µg/mL)

Question: Which Ki [3] does the source give for `CNS(=O)(=O)c1cc(Cl)c2cccnc2c1O` here?
Answer: > 100 µM

Question: For `O=C(O)c1ccc(NC(c2ccccc2)c2ccc3cccnc3c2O)cc1` (stereo not drawn), which IC50 [4] is on record?
Answer: 30.5 µM

Question: With `O=C(CSc1nnc(COc2cccc3cccnc23)n1-c1ccccc1)Nc1nc2cc(F)ccc2s1` as the compound, how does the MIC (Enterococcus faecalis) read?
Answer: 28.8 µM (≈ 15.6 µg/mL)

Question: For `O=C(NCCO[C@H]1O[C@H](CO)[C@@H](O)[C@H](O)[C@@H]1O)c1ccc2cccnc2c1O`, which MIC (Candida albicans) is on record?
Answer: 10000 µM (≈ 3940 µg/mL)

Question: Which Ki [3] does the source give for `Oc1cccc2cccnc12` [OXYQUINOLINE] here?
Answer: 0.58 µM

Question: Which IC50 [5] does the source give for `O=C(NCCCc1ccccc1)c1ccc2cccc(O)c2n1` here?
Answer: > 10 µM

Question: For `Cc1ccc(CNC(=O)c2ccc3ccc(C)nc3c2O)cc1`, which MIC [2] is on record?
Answer: > 500 µM

Question: Which MIC [2] does the source give for `CC(=O)N1CCN(c2nc(Nc3ccc(C#N)c(C(F)(F)F)c3)nc(Oc3cccc4cccnc34)n2)CC1` here?
Answer: 117 µM (≈ 62.5 µg/mL)

Question: What about the MIC (Aspergillus) of the same compound?
Answer: 9.8 µM (≈ 5.24 µg/mL)

Question: With `O=C(NNC(c1ccc2cccnc2c1O)c1c(-c2ccccc2)[nH]c2ccc(Cl)cc12)c1ccncc1` (stereo not drawn) as the compound, how does the MIC [2] read?
Answer: 24 µM (≈ 12.5 µg/mL)

Question: For `O=C(O)c1ccc(O)c2ncccc12`, which MIC (Candida albicans) is on record?
Answer: 1250 µM (≈ 236 µg/mL)

Question: For `O=S(=O)(Nc1ccc(Cl)cc1)c1ccc(O)c2ncccc12`, which MIC (Candida) is on record?
Answer: 3 µM (≈ 1 µg/mL)

Question: For `O=C(Nc1ccccc1[N+](=O)[O-])c1ccc2cccc(O)c2n1`, which MIC [2] is on record?
Answer: 97 µM (≈ 30 µg/mL)

Question: With `O=C(Nc1cccc(Cl)c1)c1ccc2cccc(O)c2n1` as the compound, how does the MIC [2] read?
Answer: 50 µM (≈ 14.9 µg/mL)

Question: Which MBEC (Staphylococcus aureus) does the source give for `Oc1c(Br)cc(Br)c2ccc(CNc3ccc(F)cc3)nc12` here?
Answer: 93.8 µM

Question: What about the MBEC [6] of the same compound?
Answer: 5.9 µM

Question: And the MBEC (Enterococcus)?
Answer: 1 µM

Question: With `O=C(NCCO[C@@H]1O[C@H](CO)[C@@H](O)[C@H](O)[C@H]1O)c1ccc2cccnc2c1O` as the compound, how does the MIC (Candida albicans) read?
Answer: 10000 µM (≈ 3940 µg/mL)

Question: For `O=C(NCCN1OCC(NC(=O)c2ccc3cccc(O)c3n2)C1=O)c1ccc2cccc(O)c2n1` (stereo not drawn), which MBC (Chlamydia trachomatis) is on record?
Answer: 5 µM (≈ 2.44 µg/mL)

Question: For `O=S(=O)(O)c1ccc(O)c2ncccc12`, which MIC (Candida albicans) is on record?
Answer: 4.44 µM (≈ 1 µg/mL)

Question: And the MIC (Nakaseomyces glabratus)?
Answer: 4.44 µM (≈ 1 µg/mL)

Question: With `O=C(NCCc1ccccc1)c1ccc2cccc(O)c2n1` as the compound, how does the IC50 [5] read?
Answer: > 10 µM

Question: For `O=C(Nc1ccc(C(F)(F)F)cc1)c1ccc2cccc(O)c2n1`, which MIC [2] is on record?
Answer: 24 µM (≈ 7.97 µg/mL)

Question: Which MBC (Chlamydia) does the source give for `O=[N+]([O-])c1cc(CN2CCC(c3ccccc3)C2)c(O)c2ncccc12` (stereo not drawn) here?
Answer: 12.5 µM (≈ 4.37 µg/mL)

Question: With `Cc1ccccc1OCC(O)COc1cccc2cccnc12` (stereo not drawn) as the compound, how does the MIC [2] read?
Answer: 23.3 µM (≈ 7.21 µg/mL)
